Reference: patent publication US20230365585A1, “BENZODIAZEPINE DERIVATIVES USEFUL IN TREATING A RESPIRATORY SYNCYTIAL VIRUS INFECTION” (priority 2020, published 2023)

Experiments:
RSV A2 = test: RSV plaque reduction assay; format: cell-based, RSV (RSV A2 ECACC, 0709161v); settings: human respiratory syncytial virus, HepG2, 48 h, Hep-G2 cells, RSV A2, 2 days; mean of at least two experiments
Description: Compounds were subjected to RSV plaque reduction assays according to the following protocol.
Hep-G2 cells (ECACC, 85011430) were passaged in flasks and seeded in 24-well plates in DMEM containing antibiotics and supplemented with 10% FBS. During inoculation and subsequent incubation, cells were cultured in DMEM containing 2% FBS. 100 plaque forming unit/well of RSV (RSV A2 ECACC, 0709161v) was mixed with eight serial dilutions of compound. Subsequently, 100 µL of the virus/compound mixtures was added to confluent Hep-G2 cell monolayers. The cells and virus/compound mixtures were incubated at 37° C. in a humidified 5% CO2 incubator for 2 h prior to removal of the inoculum and addition of 1 mL of overlay (DMEM containing 2% FBS and 0.8% CMC) containing compound dilutions. The cells and were incubated at 37° C. in a humidified 5% CO2 incubator for 2 days.
Cells were washed with PBS before adding 75%/25% v/v EtOH/MeOH, for 3 min. Fix ative was removed and plates were washed with PBS. A pre-titrated amount of the primary antibody was added in 200 µL PBS/2% milk powder, and plates incubated for 90 min at 37° C. The plates were washed 3 times with PBS/0.05% Tween20 before addition of rabbit anti-goat horse radish peroxidase in 200 µL PBS/2% milk powder, and incubated for 1 h at 37° C. Following three wash steps with PBS/0.05% Tween20, 200 µL ready-to-use TrueBlue was added and plates were incubated at rt for 10-15 min before washing with water. After removal of water, plates were air-dried in the dark.
(§1) Plates were scanned and analysed using the Immunospot S6 Macro analyser, which is equipped with BioSpot analysis software for counting immunostained plaques (virospots). Plaque counts were used to calculate % infection relative to the mean of the plaque count in the virus control wells for RSV. […] Plaque EC50 and cell toxicity CC50 values are a mean of at least two experiments and figures are rounded to whole units.

Cell cytotoxicity CC50 = format: cell-based; settings: human; mean of at least two experiments
From the text: as §1

SMILES | EC50 (RSV A2) | CC50 (Cell cytotoxicity CC50)
CCNc1ccc(-c2nn3c(c2C(=O)N[C@H]2N=C(c4ccccc4)c4ccccc4NC2=O)OC(C)CCC3)c(F)n1 (single isomer, unassigned) [Example 10-1, (5R*)-2-[6-(ethylamino)-2-fluoropyridin-3-yl]-5-methyl-N-[(3S)-2-oxo-5-phenyl-1,3-dihydro-1,4-benzodiazepin-3-yl]-5,6,7,8-tetrahydropyrazolo[5,1-b][1,3]oxazepine-3-carboxamide] | 26 nM | > 25000 nM
CCNc1ccc(-c2nn3c(c2C(=O)N[C@H]2N=C(c4ccccc4)c4cccc(F)c4NC2=O)O[C@H](C)CCC3)c(F)n1 (single isomer, unassigned) [Example 11-1] | 22 nM | > 25000 nM
CCNc1ccc(-c2nn3c(c2C(=O)N[C@H]2N=C(c4ccccc4)c4cccc(F)c4NC2=O)OC(C)CCC3)c(F)n1 (single isomer, unassigned) [Example 11-2, (5S*)-2-[6-(ethylamino)-2-fluoropyridin-3-yl]-N-[(3S)-9-fluoro-2-oxo-5-phenyl-1,3-dihydro-1,4-benzodiazepin-3-yl]-5-methyl-5,6,7,8-tetrahydropyrazolo[5,1-b][1,3]oxazepine-3-carboxamide] | 9 nM | > 25000 nM
CC(C)Nc1ccc(-c2nn3c(c2C(=O)N[C@H]2N=C(c4ccccc4)c4ccccc4NC2=O)OC(C)CCC3)c(F)n1 (single isomer, unassigned) [Example 12-1, (5R*)-2-[2-fluoro-6-(propan-2-ylamino)pyridin-3-yl]-5-methyl-N-[(3S)-2-oxo-5-phenyl-1,3-dihydro-1,4-benzodiazepin-3-yl]-5,6,7,8-tetrahydropyrazolo[5,1-b][1,3]oxazepine-3-carboxamide] | 35 nM | > 25000 nM
CC(C)Nc1ccc(-c2nn3c(c2C(=O)N[C@H]2N=C(c4ccccc4)c4cccc(F)c4NC2=O)OC(C)CCC3)c(F)n1 (single isomer, unassigned) [Example 13-1, (5R*)-N-[(3S)-9-fluoro-2-oxo-5-phenyl-1,3-dihydro-1,4-benzodiazepin-3-yl]-2-[2-fluoro-6-(propan-2-ylamino)pyridin-3-yl]-5-methyl-5,6,7,8-tetrahydropyrazolo[5,1-b][1,3]oxazepine-3-carboxamide] | 26 nM | > 25000 nM
CC1CCCOc2c(C(=O)NC3N=C(c4ccccc4)c4ccccc4NC3=O)c(-c3ccccc3F)nn21 (single isomer, unassigned) [Example 14-1, (8R*)-2-(2-Fluorophenyl)-8-methyl-N-(2-oxo-5-phenyl-1,3-dihydro-1,4-benzodiazepin-3-yl)-5,6,7,8-tetrahydropyrazolo[5,1-b][1,3]oxazepine-3-carboxamide] | 61 nM | > 25000 nM
CC1CCCOc2c(C(=O)NC3N=C(c4ccccc4)c4cccc(F)c4NC3=O)c(-c3ccccc3F)nn21 (single isomer, unassigned) [Example 15-1, (8R*)-N-(9-fluoro-2-oxo-5-phenyl-1,3-dihydro-1,4-benzodiazepin-3-yl)-2-(2-fluorophenyl)-8-methyl-5,6,7,8-tetrahydropyrazolo[5,1-b][1,3]oxazepine-3-carboxamide] | 47 nM | > 25000 nM
CC1CCCn2nc(-c3ccc(F)cc3F)c(C(=O)N[C@H]3N=C(c4ccccc4)c4ccccc4NC3=O)c2O1 (single isomer, unassigned) [Example 16-1, (5R*)-2-(2,4-difluorophenyl)-5-methyl-N-[(3S)-2-oxo-5-phenyl-1,3-dihydro-1,4-benzodiazepin-3-yl]-5,6,7,8-tetrahydropyrazolo[5,1-b][1,3]oxazepine-3-carboxamide] | 28 nM | > 25000 nM
CC1CCCn2nc(-c3ccc(F)cc3F)c(C(=O)N[C@H]3N=C(c4ccccc4)c4cccc(F)c4NC3=O)c2O1 (single isomer, unassigned) [Example 17-1, (5R*)-2-(2,4-difluorophenyl)-N-[(3 S)-9-fluoro-2-oxo-5-phenyl-1,3-dihydro-1,4-benzodiazepin-3-yl]-5-methyl-5,6,7,8-tetrahydropyrazolo[5,1-b][1,3]oxazepine-3-carboxamide] | 19 nM | > 25000 nM
O=C(N[C@H]1N=C(c2ccccc2)c2cccc(F)c2NC1=O)c1c(-c2ccccc2F)nn2c1O[C@@H]1CC[C@H]2C1 (single isomer, unassigned) [Example 19-1, (1S*,8R*)-N-[(3 S)-9-fluoro-2-oxo-5-phenyl-2,3-dihydro-1H-1,4-benzodiazepin-3-yl]-4-(2-fluorophenyl)-7-oxa-2,3-diazatricyclo[6.2.1.0^2,6]undeca-3,5-diene-5-carboxamide] | 49 nM | > 25000 nM
O=C(N[C@H]1N=C(c2ccccc2)c2cccc(F)c2NC1=O)c1c(-c2ccccc2F)nn2c1O[C@H]1CC[C@@H]2C1 (single isomer, unassigned) [Example 19-2, (1R*,8S*)-N-[(3 S)-9-fluoro-2-oxo-5-phenyl-2,3-dihydro-1H-1,4-benzodiazepin-3-yl]-4-(2-fluorophenyl)-7-oxa-2,3-diazatricyclo[6.2.1.0^2,6]undeca-3,5-diene-5-carboxamide] | 53 nM | > 25000 nM
CCC1CCCn2nc(-c3ccccc3F)c(C(=O)N[C@H]3N=C(c4ccccc4)c4ccccc4NC3=O)c2O1 (single isomer, unassigned) [Example 24-1, (5R*)-5-ethyl-2-(2-fluorophenyl)-N-[(3S)-2-oxo-5-phenyl-2,3-dihydro-1H-1,4-benzodiazepin-3-yl]-5H,6H,7H,8H-pyrazolo[3,2-b][1,3]oxazepine-3-carboxamide] | 111 nM | > 25000 nM
CCC1CCCn2nc(-c3ccccc3F)c(C(=O)N[C@H]3N=C(c4ccccc4)c4cccc(F)c4NC3=O)c2O1 (single isomer, unassigned) [Example 25-1, (5R*)-5-ethyl-2-(2-fluorophenyl)-N-[(3S)-9-fluoro-2-oxo-5-phenyl-1,3-dihydro-1,4-benzodiazepin-3-yl]-5,6,7,8-tetrahydropyrazolo[5,1-b][1,3]oxazepine-3-carboxamide] | 93 nM | > 25000 nM
CCC1CCCn2nc(-c3ccc(C)nc3)c(C(=O)N[C@H]3N=C(c4ccccc4)c4ccccc4NC3=O)c2O1 (single isomer, unassigned) [Example 26-1, (5R*)-5-ethyl-2-(6-methylpyridin-3-yl)-N-[(3 S)-2-oxo-5-phenyl-2,3-dihydro-1H-1,4-benzodiazepin-3-yl]-5H,6H,7H,8H-pyrazolo[3,2-b][1,3]oxazepine-3-carboxamide] | 314 nM | > 25000 nM
CCC1CCCn2nc(-c3ccc(C)nc3)c(C(=O)N[C@H]3N=C(c4ccccc4)c4cccc(F)c4NC3=O)c2O1 (single isomer, unassigned) [Example 27-1, (5R*)-5-ethyl-N-[(3S)-9-fluoro-2-oxo-5-phenyl-2,3-dihydro-1H-1,4-benzodiazepin-3-yl]-2-(6-methylpyridin-3-yl)-5H,6H,7H,8H-pyrazolo[3,2-b][1,3]oxazepine-3-carboxamide] | 295 nM | > 25000 nM
CCc1ccc(-c2nn3c(c2C(=O)N[C@H]2N=C(c4ccccc4)c4cccc(F)c4NC2=O)O[C@@H]2CC[C@H]3C2)cn1 (single isomer, unassigned) [Example 30-1, (1S*,8R*)-4-(6-ethylpyridin-3-yl)-N-[(3S)-9-fluoro-2-oxo-5-phenyl-2,3-dihydro-1H-1,4-benzodiazepin-3-yl]-7-oxa-2,3-diazatricyclo[6.2.1.02,6]undeca-3,5-diene-5-carboxamide] | 61 nM | > 25000 nM
CCc1ccc(-c2nn3c(c2C(=O)N[C@H]2N=C(c4ccccc4)c4cccc(F)c4NC2=O)O[C@H]2CC[C@@H]3C2)cn1 (single isomer, unassigned) [Example 30-2, (1R*,8S*)-4-(6-ethylpyridin-3-yl)-N-[(3S)-9-fluoro-2-oxo-5-phenyl-2,3-dihydro-1H-1,4-benzodiazepin-3-yl]-7-oxa-2,3-diazatricyclo[6.2.1.02,6]undeca-3,5-diene-5-carboxamide] | 63 nM | > 25000 nM
CC(C)Nc1ccc(-c2nn3c(c2C(=O)N[C@H]2N=C(c4ccccc4)c4cccc(F)c4NC2=O)O[C@@H]2CC[C@H]3C2)cn1 (single isomer, unassigned) [Example 31-1, (1S*,8R*)-N-[(3S)-9-fluoro-2-oxo-5-phenyl-2,3-dihydro-1H-1,4-benzodiazepin-3-yl]-4-{6-[(propan-2-yl)amino]pyridin-3-yl}-7-oxa-2,3-diazatricyclo[6.2.1.02,6]undeca-3,5-diene-5-carboxamide] | 63 nM | > 25000 nM
